Data as given in patent publication US5559144A, “Furyl and thienyl alkynyl-N-hydroxy urea derivatives” (Abbott Laboratories, priority 1995, dated 1996).

Assays:
[1] = molecular target: T1, 5-Lipoxygenase from RBL-1 20,000xg Supernatant (Rattus norvegicus, UniProt P12527); test: 5-lipoxygenase inhibitory activity, 20,000 xg supernatant from homogenized RBL-1 cells; format: biochemical; settings: radiolabeled arachidonic acid, triplicate
T1 construct: 20,000 xg supernatant from 1.5 million homogenized RBL-1 cells; endogenous in cells; host or cells: RBL-1 cells (20,000 xg supernatant of homogenate)
T1 sequence (P12527 1-673): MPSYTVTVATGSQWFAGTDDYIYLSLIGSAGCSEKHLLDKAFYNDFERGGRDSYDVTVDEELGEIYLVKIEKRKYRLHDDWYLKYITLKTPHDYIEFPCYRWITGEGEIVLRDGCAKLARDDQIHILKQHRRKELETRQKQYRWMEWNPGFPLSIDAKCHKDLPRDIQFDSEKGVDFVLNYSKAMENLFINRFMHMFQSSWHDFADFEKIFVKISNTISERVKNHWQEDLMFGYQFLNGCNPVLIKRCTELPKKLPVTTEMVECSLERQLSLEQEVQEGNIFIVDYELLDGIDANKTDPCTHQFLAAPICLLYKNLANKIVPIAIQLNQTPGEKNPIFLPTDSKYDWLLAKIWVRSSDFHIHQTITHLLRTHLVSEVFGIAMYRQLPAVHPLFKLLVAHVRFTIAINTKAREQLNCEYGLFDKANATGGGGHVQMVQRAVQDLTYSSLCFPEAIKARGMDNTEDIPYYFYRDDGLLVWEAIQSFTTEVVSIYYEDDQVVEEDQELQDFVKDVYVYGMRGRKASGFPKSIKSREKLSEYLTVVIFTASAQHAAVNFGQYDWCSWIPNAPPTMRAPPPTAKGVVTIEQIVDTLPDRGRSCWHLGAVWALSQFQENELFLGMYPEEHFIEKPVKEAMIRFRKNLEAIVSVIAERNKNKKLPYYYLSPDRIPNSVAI
Experimental: Assays to determine 5-lipoxygenase inhibitory activity of representative compounds of the present invention were performed in […] incubations containing the 20,000 xg supernatant from 1.5 million homogenized RBL-1 cells and various concentrations of the test compound. Reactions were initiated by addition of radiolabeled arachidonic acid and terminated by acidification and ether extraction. Reaction products were separated from nonconverted substrate by thin layer chromatography and measured by liquid scintillation spectroscopy. All incubations are performed in triplicate. Inhibition of 5-lipoxygenase activity was calculated as the ratio of the amount of product formed in the presence and absence of inhibitor. […] (Dyer, R. D.; Haviv, F.; Hanel, A. M.; Bornemier, D. A.; Carter, G. W. Fed. Proc., Fed. Am. Soc. Exp. Biol. 1984, 43, 1462A).

[2] = test system: Leukotrienes (biosynthesis); test: Inhibition of leukotriene biosynthesis in vivo after oral administration, rat peritoneal anaphylaxis model; settings: 1 h, gavage one hour prior to antigen challenge, read-out: Percent Inhibition of Leukotrienes; for inhibition in vivo at 200 µmol/kg: Oral Dose at 200 μmol/kg; for inhibition in vivo at 100 µmol/kg: Oral Dose at 100 μmol/kg; for inhibition in vivo at 30 µmol/kg: Oral Dose at 30 μmol/kg
Experimental: Inhibition of the biosynthesis of leuktrienes in vivo after oral administration of compound was determined using a rat peritoneal anaphylaxis model in a similar manner as that described by Young and coworkers (Young, P. R.; Dyer, R. D.; Carter, G. W. Fed. Proc., Fed. Am. Soc. Exp. Biol. 1985, 44, 1185). In this model rats were injected intraperitoneally (ip) with rabbit antibody to bovine serum albumin (BSA) and three hours later injected ip with BSA to induce an antgen-antibody response. Rats were sacrificed 15 minutes after this challenge and the peritoneal fluids were collected and analyzed for leukotriene levels. Test compounds were administered by gavage one hour prior to the antigen challenge. Percent inhibition values were determined by comparing the treatment group to the mean of the control group.

| Structure (SMILES) | IC50 [1] [µM] | also measured |
| --- | --- | --- |
| CC(C#Cc1ccccc1)N(O)C(N)=O (stereo not drawn) [Example 1, N-Hydroxy-N(4-phenyl-3-butyn-2-yl)urea] | 2.4 | inhibition in vivo at 200 µmol/kg [2]: 98% |
| COc1ccc2cc(C#CC(C)N(O)C(N)=O)ccc2c1 (stereo not drawn) [Example 2, N-Hydroxy-N-[4-(6-methoxynaphth-2-yl)-3-butyn-2-yl]urea] |  | inhibition in vivo at 200 µmol/kg [2]: 66% |
| CC(C#Cc1cccc(Oc2ccccc2)c1)N(O)C(N)=O (stereo not drawn) [Example 3, N-Hydroxy-N-[4-(3-phenoxyphenyl)-3-butyn-2-yl]urea] | 0.1 |  |
| CC(C#CCSc1ccccc1)N(O)C(N)=O (stereo not drawn) [Example 4, N-Hydroxy-N-(5phenylthio-3-pentyn-2-yl)urea] | 0.4 | inhibition in vivo at 200 µmol/kg [2]: 64% |
| CC(C#CCN(C)Cc1ccccc1)N(O)C(N)=O (stereo not drawn) [Example 5, N-Hydroxy-N-[5-[(N-methyl-N-benzyl)amino]-3-pentyn,2-yl]urea] | 3.6 |  |
| CC(C#Cc1cccc(OCc2ccccc2)c1)N(O)C(N)=O (stereo not drawn) [Example 6, N-Hydroxy-N-[4-(3-benzyloxyphenyl)-3-butyn-2-yl]urea] | 0.2 |  |
| CC(C#Cc1ccc(OCc2ccccc2)cc1)N(O)C(N)=O (stereo not drawn) [Example 7, N-Hydroxy-N-[4-(4-benzyloxyphenyl)-3-butyn-2-yl]urea] | 0.13 |  |
| CC(C#CC1CCCCC1)N(O)C(N)=O (stereo not drawn) [Example 8, N-Hydroxy-N-[4-cyclohexyl-3-butyn-2-yl]urea] | 1.9 | inhibition in vivo at 200 µmol/kg [2]: 41% |
| CC(C#CC1=CCCCC1)N(O)C(N)=O (stereo not drawn) [Example 9, N-Hydroxy-N-(4-cyclohexen-1-yl-3butyn-2-yl)urea] | 1.2 |  |
| CC(C#CCOc1ccccc1)N(O)C(N)=O (stereo not drawn) [Example 10, N-Hydroxy-N-(5-phenoxy-3-pentyn-2-yl)urea] |  | inhibition in vivo at 200 µmol/kg [2]: 99% |
| CC(C#CCCCc1ccccc1)N(O)C(N)=O (stereo not drawn) [Example 11, N-Hydroxy,N-(7-phenyl-3-heptyn-2-yl)urea] | 0.7 | inhibition in vivo at 200 µmol/kg [2]: 99% |
| CC(C#Cc1ccc(Oc2ccccc2)cc1)N(O)C(N)=O (stereo not drawn) [Example 12, N-Hydroxy-N[4-(4-phenoxyphenyl)-3-butyn-2-yl]urea] | 0.3 |  |
| CCCCc1ccc(C#CC(C)N(O)C(N)=O)s1 (stereo not drawn) [Example 13, N-Hydroxy-N-[4-(5-butylthien-2-yl)-3-butyn-2-yl]urea] | 0.3 |  |
| Cc1ccc(C#CC(C)N(O)C(N)=O)s1 (stereo not drawn) [Example 14, N-Hydroxy-N-[4-(5,methylthien-2-yl)-3-butyn-2-y]urea] | 1.7 |  |
| CNC(=O)N(O)C(C)C#Cc1ccccc1 (stereo not drawn) [Example 15, N-Hydroxy-N-(4-phenyl-3-butyn-2-yl)-N'-methylurea] | 3.3 |  |
| CC(C#Cc1cc2ccccc2s1)N(O)C(N)=O (stereo not drawn) [Example 16, N-Hydroxy-N-[4-(2-benzo[b]thienyl)-3-butyn-2-yl]urea] | 0.1 |  |
| CC(C#Cc1ccc(Br)cc1)N(O)C(N)=O (stereo not drawn) [Example 17, N-Hydroxy-N-[4-(4-bromophenyl)-3-butyn-2-yl]urea] | 0.8 | inhibition in vivo at 200 µmol/kg [2]: 98% |
| CNC(=O)N(O)C(C)C#Cc1ccc(Br)cc1 (stereo not drawn) [Example 18, N-Hydroxy-N-[4-(4-bromophenyl)-3-butyn-2-yl]-N'-methylurea] | 0.5 |  |
| CC(C#Cc1ccc(Cl)cc1)N(O)C(N)=O (stereo not drawn) [Example 19, N-Hydroxy-N-[4-(4-chlorophenyl)-3-butyn-2-yl]urea] | 0.4 | inhibition in vivo at 100 µmol/kg [2]: 82% |
| CNC(=O)N(O)C(C)C#Cc1ccc(Cl)cc1 (stereo not drawn) [Example 20, N-Hydroxy-N-[4-(4-chlorophenyl)-3-butyn-2-yl]-N'-methylurea] | 1.1 | inhibition in vivo at 100 µmol/kg [2]: 89% |
| CC(C#Cc1ccc(F)cc1)N(O)C(N)=O (stereo not drawn) [Example 21, N-Hydroxy-N-[4,(4-fluorophenyl)-3-butyn-2-yl]urea] | 2.1 | inhibition in vivo at 100 µmol/kg [2]: 90% |
| CC(C)c1ccc(C#CC(C)N(O)C(N)=O)cc1 (stereo not drawn) [Example 22, N-Hydroxy-N-[4-[4-(1-methylethyl)phenyl]-3-butyn-2-yl]urea] | 0.4 | inhibition in vivo at 100 µmol/kg [2]: 86% |

| Structure (SMILES) | IC50 [1] [µM] | also measured |
| --- | --- | --- |
| CNC(=O)N(O)C(C)C#Cc1ccc(C(C)C)cc1 (stereo not drawn) [Example 23, N-Hydroxy-N-[4-[4-(1-methylethyl)phenyl]-3-butyn-2-yl]-N'-methylurea] | 0.5 |  |
| CCc1ccc(C#CC(C)N(O)C(N)=O)cc1 (stereo not drawn) [Example 24, N-Hydroxy-N-[4-(4-ethylphenyl)-3-butyn-2-yl]urea] | 0.3 |  |
| CCc1ccc(C#CC(C)N(O)C(=O)NC)cc1 (stereo not drawn) [Example 25, N-Hydroxy-N-[4-(4-ethylphenyl)-3-butyn-2-yl]-N'-methylurea] | 0.4 | inhibition in vivo at 100 µmol/kg [2]: 69% |
| CC(C#CCCc1ccccc1)N(O)C(N)=O (stereo not drawn) [Example 26, N-Hydroxy-N-(6-phenyl-3-hexyn-2-yl)urea] | 0.9 | inhibition in vivo at 100 µmol/kg [2]: 78% |
| CNC(=O)N(O)C(C)C#CCCc1ccccc1 (stereo not drawn) [Example 27, N-Hydroxy-N-(6-phenyl-3-hexyn-2-yl)-N'-methylurea] | 0.7 |  |
| Cc1ccc(C#CC(C)N(O)C(N)=O)cc1 (stereo not drawn) [Example 28, N-Hydroxy-N-[4-(4-methylphenyl)-3-butyn-2-yl]urea] | 1.4 |  |
| CNC(=O)N(O)C(C)C#Cc1ccc(C)cc1 (stereo not drawn) [Example 29, N-Hydroxy-N-[4-(4-methylphenyl)-3-butyn-2-yl]-N'-methylurea] | 0.8 |  |
| CC(C#Cc1ccco1)N(O)C(N)=O (stereo not drawn) [Example 31, N-Hydroxy-N-[4-(2-furyl)-3-butyn-2-yl]urea] | 6.2 |  |
| Cc1ccc(Oc2cccc(C#CC(C)N(O)C(N)=O)c2)cc1 (stereo not drawn) [Example 35, N-Hydroxy-N-[4-[3-(4-methylphenoxy)phenyl]-3-butyn-2-yl]urea] | 0.4 |  |
| COc1ccc(C#CC(C)N(O)C(N)=O)cc1 (stereo not drawn) [Example 37, N-Hydroxy-N-[4-(4-methoxyphenyl)-3-butyn-2-yl]urea] | 2 |  |
| NC(=O)N(O)CC#CCOc1cccc(Oc2ccccc2)c1 [Example 38, N-Hydroxy-N-[4-(3-phenoxyphenoxy)-2-butynyl]urea] |  | inhibition in vivo at 100 µmol/kg [2]: 100% |
| COc1ccc(Oc2cccc(C#CC(C)N(O)C(N)=O)c2)cc1 (stereo not drawn) [Example 40, N-Hydroxy-N-[4-[3-(4-methoxyphenoxy)phenyl]-3-butyn-2-yl]urea] | 0.5 |  |
| NC(=O)N(O)CC#CCOc1ccccc1 [Example 41, N-Hydroxy-N-(4-phenoxy-2-butynyl)urea] | 3.5 |  |
| CC(C#CCOc1cccc(Oc2ccccc2)c1)N(O)C(N)=O (stereo not drawn) [Example 45, N-Hydroxy-N-[5-(3-phenoxyphenoxy)-3-pentyn-2-yl]urea] | 0.2 |  |
| NC(=O)N(O)CC#CCOc1cccc(Oc2cccnc2)c1 [Example 49] |  | inhibition in vivo at 100 µmol/kg [2]: 98% |
| NC(=O)N(O)CC#Cc1cccc(Oc2cccnc2)c1 [Example 54, N-Hydroxy-N-[3-[3-(3-pyridinyloxy)phenyl]-2-propyn-1-yl]urea] |  | inhibition in vivo at 30 µmol/kg [2]: 78% |
| CC(C#CCCc1cccc(Oc2ccccn2)c1)N(O)C(N)=O (stereo not drawn) [Example 55, N-Hydroxy-N-[6-[3-(2-pyridinyloxy)phenyl]-3-hexyn-2-yl,1]-urea] | 0.9 |  |
| CNC(=O)N(O)C(C)C#Cc1cccc(Oc2ccccn2)c1 (stereo not drawn) [Example 56, N-Hydroxy-N-[4-[3-(2-pyridinyloxy)phenyl]-3-butyn-2-yl]-N'-methylurea] | 0.3 |  |
| NC(=O)N(O)CC#Cc1ccc(Oc2ccc(F)cc2)o1 [Example 60, N-hydroxy-N-{3-[5-(4-fluorophenoxy)-2-furyl]-2-propynyl}urea] |  | inhibition in vivo at 30 µmol/kg [2]: 70% |
| NC(=O)N(O)CC#Cc1cccc(Oc2ccccn2)c1 [Example 63, N-Hydoxy-N-[3-[3-(2-pyridinyloxy)phenyl]-2-propyn-1-yl]urea] |  | inhibition in vivo at 30 µmol/kg [2]: 85% |
| COc1cccc(Oc2cccc(C#CC(C)N(O)C(N)=O)c2)n1 (stereo not drawn) [Example 65, N-Hydroxy-N-[4-[3-(6-methoxypyridin-2-yloxy)phenyl]-3-butyn-2-yl]urea] | 0.2 |  |
